From the NIST ThermoML archive (doi:10.1021/je900550v)

Details: 101.33 kPa, Liquid; for speed of sound: Pulse-echo method; for mass density: Vibrating tube method

CC(C)C(=O)[O-].C[NH2+]CCO [2-hydroxy-N-methylethanaminium isobutyrate]
Details	mass density [kg/m3]	speed of sound [m/s]	viscosity [mPa·s]
278.15 K	1056.12	1670.2	–
278.4 K	1055.96	1669.4	–
278.65 K	1055.8	1668.6	–
278.9 K	1055.64	1667.8	–
279.15 K	1055.48	1667	–
279.4 K	1055.32	1666.2	–
279.65 K	1055.16	1665.4	–
279.9 K	1055	1664.7	–
280.15 K	1054.85	1663.9	–
280.4 K	1054.68	1663.1	–
280.65 K	1054.52	1662.3	–
280.9 K	1054.36	1661.5	–
281.15 K	1054.2	1660.8	–
281.4 K	1054.04	1660	–
281.65 K	1053.88	1659.2	–
281.9 K	1053.72	1658.5	–
282.15 K	1053.56	1657.7	–
282.4 K	1053.4	1657	–
282.65 K	1053.24	1656.2	–
282.9 K	1053.08	1655.4	–
283.15 K	1052.92	1654.7	–
283.4 K	1052.76	1653.9	–
283.65 K	1052.6	1653.2	–
283.9 K	1052.43	1652.4	–
284.15 K	1052.27	1651.7	–
284.4 K	1052.11	1650.9	–
284.65 K	1051.95	1650.2	–
284.9 K	1051.79	1649.4	–
285.15 K	1051.63	1648.7	–
285.4 K	1051.47	1647.9	–
285.65 K	1051.31	1647.2	–
285.9 K	1051.14	1646.4	–
286.15 K	1050.98	1645.9	–
286.4 K	1050.82	1645.2	–
286.65 K	1050.66	1644.4	–
286.9 K	1050.49	1643.7	–
287.15 K	1050.33	1642.9	–
287.4 K	1050.17	1642.2	–
287.65 K	1050.01	1641.5	–
287.9 K	1049.85	1640.7	–
288.15 K	1049.68	1640	301.35
288.4 K	1049.52	1639.3	–
288.65 K	1049.36	1638.5	–
288.9 K	1049.19	1637.8	–
289.15 K	1049.03	1637.1	–
289.4 K	1048.87	1636.3	–
289.65 K	1048.72	1635.6	–
289.9 K	1048.56	1634.9	–
290.15 K	1048.41	1634.2	–
290.4 K	1048.25	1633.4	–
290.65 K	1048.09	1632.7	–
290.9 K	1047.94	1632	–
291.15 K	1047.79	1631.2	–
291.4 K	1047.63	1630.5	–
291.65 K	1047.47	1629.8	–
291.9 K	1047.31	1629.1	–
292.15 K	1047.16	1628.4	–
292.4 K	1047	1627.7	–
292.65 K	1046.84	1626.9	–
292.9 K	1046.68	1626.2	–
293.15 K	–	–	220.69
